From article PMC9315260, “Diarylamine-Guided Carboxamide Derivatives: Synthesis, Biological Evaluation, and Potential Mechanism of Action” (Frontiers in Chemistry, 2022)

How the values were obtained:
[1] = biological target: T1, PDK1 (Homo sapiens, UniProt O15530); experiment: ADP-GLO kinase inhibitory assay, PDK1; type: biochemical
T1 sequence (O15530 1-556): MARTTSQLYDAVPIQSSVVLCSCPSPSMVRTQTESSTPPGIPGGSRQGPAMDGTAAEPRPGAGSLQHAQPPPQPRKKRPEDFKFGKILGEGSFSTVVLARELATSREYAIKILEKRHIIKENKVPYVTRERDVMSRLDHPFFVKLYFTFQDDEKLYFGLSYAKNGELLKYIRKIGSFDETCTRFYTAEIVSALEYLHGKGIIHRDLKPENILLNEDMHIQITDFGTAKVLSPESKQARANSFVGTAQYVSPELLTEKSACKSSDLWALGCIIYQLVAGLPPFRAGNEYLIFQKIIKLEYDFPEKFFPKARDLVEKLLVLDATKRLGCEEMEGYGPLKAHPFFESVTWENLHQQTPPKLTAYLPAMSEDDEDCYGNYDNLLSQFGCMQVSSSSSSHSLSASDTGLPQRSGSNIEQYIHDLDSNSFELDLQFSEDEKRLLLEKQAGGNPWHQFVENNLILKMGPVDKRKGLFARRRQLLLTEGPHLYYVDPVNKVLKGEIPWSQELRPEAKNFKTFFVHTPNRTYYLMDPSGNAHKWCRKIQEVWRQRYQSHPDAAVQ
Description: (§1) Based on the aforementioned results for the potential mechanism of action, the kinase inhibitory profile of compounds C6 and C11 were screened at two dose concentration of 10 and 1 µM over a panel of 15 kinases, and the kinase inhibitory activities are listed in supporting information (Supplementary Table S1).
(§2) The kinase inhibitory profile of compounds C6 and C11 were screened at two dose concentration of 10 and 1 µM over a panel of 15 kinases, and each assay was repeated twice. All the inhibitory assays were carried out through kinase profiling services provided by HY Biotech (Chinese), in which ADP-GLO kinase assays were used.
as §2, with “10 µM” for “10”

[2] = biological target: DAPK1 (Homo sapiens, UniProt P53355); experiment: ADP-GLO kinase inhibitory assay, DAPK1; type: biochemical
Chain of DAPK1 (P53355 whole entry, species assumed): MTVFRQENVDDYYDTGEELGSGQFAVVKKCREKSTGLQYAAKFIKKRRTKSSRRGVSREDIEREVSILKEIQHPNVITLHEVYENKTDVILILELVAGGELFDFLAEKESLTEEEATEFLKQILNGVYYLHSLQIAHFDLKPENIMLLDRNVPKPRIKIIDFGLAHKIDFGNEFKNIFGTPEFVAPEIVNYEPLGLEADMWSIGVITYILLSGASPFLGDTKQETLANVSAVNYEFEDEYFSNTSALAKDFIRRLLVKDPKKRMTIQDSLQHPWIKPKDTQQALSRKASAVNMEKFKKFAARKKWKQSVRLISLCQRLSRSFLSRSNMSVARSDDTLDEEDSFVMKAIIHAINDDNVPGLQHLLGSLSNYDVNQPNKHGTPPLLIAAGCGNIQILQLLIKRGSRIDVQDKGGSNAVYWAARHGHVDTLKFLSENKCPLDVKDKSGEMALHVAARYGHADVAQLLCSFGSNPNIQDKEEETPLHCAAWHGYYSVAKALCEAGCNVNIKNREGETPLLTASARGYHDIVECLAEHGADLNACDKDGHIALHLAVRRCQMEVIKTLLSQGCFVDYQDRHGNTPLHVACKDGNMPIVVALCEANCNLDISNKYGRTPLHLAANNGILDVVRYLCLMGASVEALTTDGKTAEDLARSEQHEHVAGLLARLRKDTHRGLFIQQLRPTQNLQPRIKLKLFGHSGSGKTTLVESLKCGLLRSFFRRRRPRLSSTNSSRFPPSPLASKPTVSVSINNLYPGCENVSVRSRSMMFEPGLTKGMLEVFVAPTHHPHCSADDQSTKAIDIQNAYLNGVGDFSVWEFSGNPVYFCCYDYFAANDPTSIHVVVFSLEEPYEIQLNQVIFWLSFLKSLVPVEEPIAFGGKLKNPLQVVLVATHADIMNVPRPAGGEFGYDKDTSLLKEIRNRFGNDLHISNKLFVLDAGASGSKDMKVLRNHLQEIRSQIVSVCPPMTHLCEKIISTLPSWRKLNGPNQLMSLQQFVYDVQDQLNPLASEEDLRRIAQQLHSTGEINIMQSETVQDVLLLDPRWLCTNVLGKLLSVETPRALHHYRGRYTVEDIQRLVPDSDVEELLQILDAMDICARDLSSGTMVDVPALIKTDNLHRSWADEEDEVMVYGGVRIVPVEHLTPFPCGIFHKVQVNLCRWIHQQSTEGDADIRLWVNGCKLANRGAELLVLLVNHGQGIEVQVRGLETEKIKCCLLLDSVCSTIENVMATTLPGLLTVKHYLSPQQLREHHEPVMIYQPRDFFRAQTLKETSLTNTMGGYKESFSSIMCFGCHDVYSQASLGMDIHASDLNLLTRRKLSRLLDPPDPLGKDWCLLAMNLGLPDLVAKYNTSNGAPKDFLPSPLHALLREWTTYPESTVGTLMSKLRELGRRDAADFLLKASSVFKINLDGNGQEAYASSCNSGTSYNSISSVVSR
Description: as §1, §2
as §2, with “10 µM” for “10”

[3] = system: A875 cells; experiment: LDH release (cellular necrosis); type: cell-based, human; conditions: 24 h after treatment
Description: From the preliminary analysis of apoptosis, the results encourage us to further investigate the type of cell death induced by the potential compounds (C6 and C11). As we know, the release of LDH is a typical characteristic feature of necrotic cell death, and so which was detected.
A875 cells grown in 96-well plates were treated with serial dilutions of each tested compound for 24 h. The culture media were collected, and the concentrations of LDH were determined based on our previous research ([Huang et al., 2021]).
A875 cells grown in 96-well plates were treated with serial dilutions of each tested compound for 24 h. The culture media were collected, and the concentrations of LDH were determined with an LDH assay kit according to the manufacturer’s instructions (Abcam).

[4] = biological target: CAMK2 alpha (Homo sapiens, UniProt Q9UQM7); experiment: ADP-GLO kinase inhibitory assay, CAMK2 alpha; type: biochemical
Chain of CAMK2 alpha (Q9UQM7 whole entry): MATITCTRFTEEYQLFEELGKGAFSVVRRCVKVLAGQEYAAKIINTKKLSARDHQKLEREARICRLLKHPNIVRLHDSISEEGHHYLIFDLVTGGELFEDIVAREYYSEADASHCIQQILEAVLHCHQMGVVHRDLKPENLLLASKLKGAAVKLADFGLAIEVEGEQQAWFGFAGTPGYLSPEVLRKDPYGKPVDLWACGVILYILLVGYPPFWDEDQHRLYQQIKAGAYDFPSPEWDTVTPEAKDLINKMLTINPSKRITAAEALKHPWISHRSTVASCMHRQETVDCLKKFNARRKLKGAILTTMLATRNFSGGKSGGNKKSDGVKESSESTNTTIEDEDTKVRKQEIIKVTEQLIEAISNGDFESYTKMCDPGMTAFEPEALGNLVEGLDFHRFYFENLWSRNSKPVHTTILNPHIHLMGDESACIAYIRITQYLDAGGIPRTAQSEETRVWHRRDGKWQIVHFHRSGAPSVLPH
Description: as §1, §2
as §2, with “10 µM” for “10”

[5] = biological target: PLK1 (Homo sapiens, UniProt P53350); experiment: ADP-GLO kinase inhibitory assay, PLK1; type: biochemical
Chain of PLK1 (P53350 whole entry, species assumed): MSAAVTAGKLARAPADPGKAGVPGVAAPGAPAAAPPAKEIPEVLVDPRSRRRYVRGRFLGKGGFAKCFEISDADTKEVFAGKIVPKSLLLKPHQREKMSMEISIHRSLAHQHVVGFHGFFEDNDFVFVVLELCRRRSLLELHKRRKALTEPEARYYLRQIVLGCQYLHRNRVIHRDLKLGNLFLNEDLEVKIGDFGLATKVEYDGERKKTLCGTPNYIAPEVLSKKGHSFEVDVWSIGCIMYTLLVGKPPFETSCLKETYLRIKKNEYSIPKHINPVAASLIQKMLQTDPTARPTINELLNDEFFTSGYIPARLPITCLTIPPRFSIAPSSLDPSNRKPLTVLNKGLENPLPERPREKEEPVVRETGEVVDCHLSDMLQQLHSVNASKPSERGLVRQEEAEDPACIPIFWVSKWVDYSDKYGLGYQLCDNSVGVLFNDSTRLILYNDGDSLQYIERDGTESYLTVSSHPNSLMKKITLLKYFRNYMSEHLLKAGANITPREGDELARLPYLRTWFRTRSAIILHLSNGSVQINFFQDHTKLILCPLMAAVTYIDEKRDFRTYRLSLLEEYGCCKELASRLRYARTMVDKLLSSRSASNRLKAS
Description: as §1, §2
as §2, with “10 µM” for “10”

[6] = biological target: CDK2/A2 (Homo sapiens, UniProt P24941); experiment: ADP-GLO kinase inhibitory assay, CDK2/A2; type: biochemical; conditions: for inhibition of CDK2/A2, in words: at 1 μM
Description: as §1, §2
as §2, with “10 µM” for “10”

[7] = system: AURORA; experiment: ADP-GLO kinase inhibitory assay, AURORA; type: biochemical
Description: as §1, §2
as §2, with “10 µM” for “10”

[8] = system: HepG2 (human hepatocellular liver carcinoma cell line); experiment: MTT in vitro cytotoxicity assay, HepG2; type: cell-based; conditions: for IC50: HepG2, Table 3, MTT, mean ± S.D.; for inhibition at 100 µM: HepG2, at 100 µM, read-out: Cell growth inhibition (%) HepG2
Description: The lead molecules A2 and all newly prepared diarylamine derivatives B1-13 and C1-11 were evaluated for their in vitro cytotoxic effects against SGC-7901, A875, HepG2 and MARC145 cell lines by the classical MTT [3-(4,5-dimethylthiazol-2-yl)-2,5-diphenyl tetrazolium bromide] assay ([Alley et al., 1988]; [Ke et al., 2012]; [Shi et al., 2012]; [Yu et al., 2015]; [Ke et al., 2019]; [Xu et al., 2019]; [Huang et al., 2021]) using 5-FU (5-Fluorouracil) as a control.
The cytotoxicity of target compounds was determined with MTT assay ([Alley et al., 1988]; [Ke et al., 2012]; [Shi et al., 2012]; [Yu et al., 2015]; [Ke et al., 2019]; [Xu et al., 2019]; [Huang et al., 2021]). SGC-7901, A875, HepG2 and MARC145 cell lines were obtained from Hubei Biopesticide Engineering Research Centre. All data of the experiment were analyzed with SPSS software, and all assay were performed in triplicate on three independent experiments, and measurement data were expressed as the mean ± S.D.
The in vitro cytotoxicity of the synthesized compounds against different cell lines (SGC-7901, A875, HepG2 and MARC145) was measured with MTT assay. All the data of the experiment were analyzed with SPSS software, and the 50% inhibitory concentrations (IC50) of each compound for the different cell lines were determined. A control was run for each test, and all assays were performed in triplicate on three independent experiments, and measurement data were expressed as the mean ± S.D.

[9] = biological target: PAK3 (Homo sapiens, UniProt O75914); experiment: ADP-GLO kinase inhibitory assay, PAK3; type: biochemical
Chain of PAK3 (O75914 whole entry, species assumed): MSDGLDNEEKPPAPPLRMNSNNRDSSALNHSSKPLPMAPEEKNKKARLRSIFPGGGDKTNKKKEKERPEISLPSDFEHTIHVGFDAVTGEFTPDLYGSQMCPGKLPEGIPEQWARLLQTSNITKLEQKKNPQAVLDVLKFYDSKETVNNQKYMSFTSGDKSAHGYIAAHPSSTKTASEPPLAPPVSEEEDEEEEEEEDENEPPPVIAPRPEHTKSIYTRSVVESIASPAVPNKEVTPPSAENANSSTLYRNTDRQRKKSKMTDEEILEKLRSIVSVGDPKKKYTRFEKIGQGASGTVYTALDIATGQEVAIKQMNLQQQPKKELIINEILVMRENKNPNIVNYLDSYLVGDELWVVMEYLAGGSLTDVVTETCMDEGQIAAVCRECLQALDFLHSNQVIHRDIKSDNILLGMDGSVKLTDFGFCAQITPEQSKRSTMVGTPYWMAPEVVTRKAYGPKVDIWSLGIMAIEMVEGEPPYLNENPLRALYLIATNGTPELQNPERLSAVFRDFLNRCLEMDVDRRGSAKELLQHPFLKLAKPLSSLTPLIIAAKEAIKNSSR
Description: as §1, §2
as §2, with “10 µM” for “10”

[10] = biological target: RIPK3 (Homo sapiens, UniProt Q9Y572); experiment: ADP-GLO kinase inhibitory assay, RIPK3; type: biochemical
Chain of RIPK3 (Q9Y572 whole entry, species assumed): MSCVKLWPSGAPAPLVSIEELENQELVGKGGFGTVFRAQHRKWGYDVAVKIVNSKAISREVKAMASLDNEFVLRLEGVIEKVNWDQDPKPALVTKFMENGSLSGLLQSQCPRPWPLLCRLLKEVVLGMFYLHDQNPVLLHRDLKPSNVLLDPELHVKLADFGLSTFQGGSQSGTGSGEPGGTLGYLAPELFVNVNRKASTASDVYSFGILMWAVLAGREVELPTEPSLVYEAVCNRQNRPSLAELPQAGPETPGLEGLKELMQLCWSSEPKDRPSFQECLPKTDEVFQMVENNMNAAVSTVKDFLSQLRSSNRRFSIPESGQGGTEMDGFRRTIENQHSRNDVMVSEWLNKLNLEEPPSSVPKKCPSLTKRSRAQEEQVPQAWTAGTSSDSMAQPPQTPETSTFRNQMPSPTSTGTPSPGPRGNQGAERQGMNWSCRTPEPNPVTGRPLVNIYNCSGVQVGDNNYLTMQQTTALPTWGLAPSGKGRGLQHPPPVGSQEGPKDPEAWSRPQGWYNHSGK
Description: as §1, §2
as §2, with “10 µM” for “10”

Structure (SMILES) | inhibition at 1 µM [1] | inhibition at 10 µM [1] | inhibition at 1 µM [2] | inhibition at 10 µM [2] | release of LDH, in words [3] | inhibition at 1 µM [4] | inhibition at 10 µM [4] | inhibition at 1 µM [5] | inhibition at 10 µM [5] | inhibition at 1 µM [6] | inhibition at 10 µM [6] | inhibition of CDK2/A2, in words [6] | Inhibition activity (%) AURORA ([7]; 1 µM) | Inhibition activity (%) AURORA ([7]; 10 µM) | IC50 [8] | inhibition at 100 µM [8] | inhibition at 1 µM [9] | inhibition at 10 µM [9] | inhibition at 1 µM [10] | inhibition at 10 µM [10]
O=C(Nc1cccc(C(F)(F)F)c1)c1cccnc1Nc1cccc(C(F)(F)F)c1 [C6, N-(3-(Trifluoromethyl)phenyl)-2-((3-(trifluoromethyl)phenyl)amino)nicotinamide] | 10.3% | 10.1% | 8.48% | -7.18% | significantly increased | 5.12% | 37.8% | 5.21% | -0.95% | 23.4% | 15% | certain inhibitions | 4.35% | 7.74% | 9.99 ± 1.58 µM | 91.3 ± 3.7% | 10.1% | 1.34% | -1.37% | 16.8%
O=C(Nc1ccc(Cl)nc1)c1cccnc1Nc1cccc(C(F)(F)F)c1 [C11, N-(6-Chloropyridin-3-yl)-2-((3-(trifluoromethyl)phenyl)amino)nicotinamide] | 20.3% | 10.9% | -2.25% | 6.49% | significantly increased | 5.65% | -1.53% | 7.32% | 2.02% | 26.8% | 16.7% | some inhibitions | 9.65% | 12.58% | 10.2 ± 2.04 µM | 85.7 ± 2.4% | 11.8% | 8.14% | 2.34% | 10.4%
